Where two headings read alike, the source gives them in different places.
Legend:
[1] = system: α7 integrin (LacZ reporter in α7LacZ+/− myoblasts); assay: qHTS of the LOPAC library and MLSMR (online screen, α7LacZ+/− myoblasts); details: for activation at 0.307 µM / activation at 1.53 µM / activation at 7.66 µM / activation at 38.3 µM / Emax / EC50: Mus musculus, Myoblast; for activation at 0.307 µM: read-out: Activity at 0.307 uM [%] **; for activation at 1.53 µM: read-out: Activity at 1.530 uM [%] **; for activation at 7.66 µM: read-out: Activity at 7.660 uM [%] **; for activation at 38.3 µM: read-out: Activity at 38.30uM [%] **; for EC50: read-out: Fit LogAC50 (converted); for Online Screen Score / Online Screen Fold-change: MLSMR qHTS, myoblasts
[2] = system: α7 integrin (LacZ reporter in α7+/LacZ myotubes); assay: Myotube α7 integrin FDG assay (Burkin assay in myotubes, 96-well); assay type: cell-based, mouse; details: myotubes; for EC50: nonlinear regression of dose-response curves, read-out: EC50 α7+/LacZ MT; for MT FOLD INCREASE: maximum response
[3] = 48 h, read-out: Fit Infinite Activity [%]

Row | Compound | activation at 0.307 µM ([1]; 48 h) | activation at 1.53 µM ([1]; 48 h) | activation at 7.66 µM ([1]; 48 h) | activation at 38.3 µM ([1]; 48 h) | Emax [1, 3] | EC50 [1] | Emax ([1]; read-out: Max Response [%]) | EC50 [2] | Online Screen Score [1] | MT FOLD INCREASE [2] | Online Screen Fold-change [1]
1 | O=C(Nc1ccc(Oc2cccnc2)cc1)c1ccccc1Cl [Compound 215] | 14.2% | 15.2% | 40.8% | 83.3% | 87.4% | 10 µM | 83.3% |  |  |  | 
2 | O=C(CNC(=O)c1cccc(F)c1)N/N=C/c1cc(Br)ccc1OCc1ccccc1 [Compound 216] | 8.28% | 20.8% | 44% | 71.7% | 94.4% | 10 µM | 71.7% |  |  |  | 
3 | COc1ccc(CCNC(=O)c2cc(-c3cc(C)ccc3O)n[nH]2)cc1OC [Compound 217] | 10.4% | 9.29% | 27.5% | 65.2% | 66.2% | 10 µM | 65.2% |  |  |  | 
4 | N#Cc1ccc(Sc2nc3ccccc3[nH]2)cc1C#N [Compound 218] | 14% | 13.1% | 29.8% | 71.5% | 71.8% | 10 µM | 71.5% |  |  |  | 
5 | CC(=O)Nc1nonc1-c1nc2ccccc2n1CCC(C)C [Compound 219] | -8.22% | -3.05% | 21.4% | 66% | 76.4% |  | 66% |  |  |  | 
6 | C=CCn1c(COc2ccc(Cl)cc2)nnc1SCc1ccc(C#N)cc1 [Compound 220] | 7.14% | 9.51% | 27.6% | 93.8% | 95.1% |  | 93.8% |  |  |  | 
7 | O=C(Cn1nc(-c2ccc(Cl)cc2)ccc1=O)N1CCC2(CC1)OCCO2 [Compound 221] | 6.38% | 7.87% | 16.8% | 66.1% | 66.5% |  | 66.1% |  |  |  | 
8 | CCOC(=O)/C(C(=O)c1ccccc1)=C(\N)NCCO [Compound 222] | 9.44% | 9.77% | 16.5% | 66.5% | 66.8% |  | 66.5% |  |  |  | 
9 | CN(C)c1ccnc2sc(C(N)=O)c(N)c12 [MLS000532969] |  |  |  |  |  |  |  | 2.2 µM | 44 |  | 
10 | CC1CCCCN1c1ncnc(N)c1[N+](=O)[O-] (stereo not drawn) [MLS000683234] |  |  |  |  |  |  |  | 27 µM | 46 | 1.7 fold | 2.6
11 | O=C(Nc1ccc(N2CCN(C(=O)c3ccccc3F)CC2)cc1)c1cncc(Br)c1 [MLS001060533] |  |  |  |  |  |  |  | 4.7 µM | 42 | 1.5 fold | 1.9
12 | C[C@H]1CNC(=O)c2c(C(=O)Nc3ccc(CNC(=O)OC(C)(C)C)cc3)ncn21 [MLS003126425] |  |  |  |  |  |  |  | 7 µM | 43 | 2.0 fold | 1.9

From patent publication US9980943B2, “Methods of treating muscular dystrophy” (BOARD OF REGENTS OF THE NEVADA SYSTEM OF HIGHER EDUCATION, …, priority 2013, dated 2018)
